Assay results taken from ChEMBL document CHEMBL4251572, “Novel aminopyrimidinyl benzimidazoles as potentially antimicrobial agents: Design, synthesis and biological evaluation” (Eur J Med Chem, 2018).
Converted amounts (≈) assume the structure as drawn. The source made the active and inactive calls. The calls are words filed in the database; no cut-off is given here.

Columns and labels:
Staphylococcus aureus [1] = assay: Antibacterial activity against Staphylococcus aureus ATCC 25923 after 24 hrs by micro broth dilution assay; format: functional; details: ATCC 25923, 24 h
Shigella dysenteriae = assay: Antibacterial activity against Shigella dysenteriae after 24 hrs by micro broth dilution assay; format: functional
Staphylococcus aureus [2] = assay: Antibacterial activity against methicillin-resistant Staphylococcus aureus N315 after 16 serial passages by two-fold serial dilution assay; format: functional, organism-based
Salmonella typhi = assay: Antibacterial activity against Bacillus typhi after 24 hrs by micro broth dilution assay; format: functional, Salmonella enterica subsp. enterica serovar Typhi; details: Salmonella enterica
Pseudomonas aeruginosa [3] = assay: Antibacterial activity against Pseudomonas aeruginosa after 24 hrs by micro broth dilution assay; format: functional
Escherichia coli [4] = assay: Antibacterial activity against Escherichia coli DH52 after 24 hrs by micro broth dilution assay; format: functional; details: DH52, 24 h
Bacillus = assay: Antibacterial activity against Bacillus proteus ATCC 13315 after 24 hrs by micro broth dilution assay; format: functional; details: ATCC 13315, 24 h
Micrococcus luteus = assay: Antibacterial activity against Micrococcus luteus ATCC4698 after 24 hrs by micro broth dilution assay; format: functional; details: ATCC4698, 24 h
Staphylococcus aureus [5] = assay: Antibacterial activity against methicillin-resistant Staphylococcus aureus N315 after 24 hrs by micro broth dilution assay; format: functional; details: N315, 24 h
Escherichia coli [6] = assay: Antibacterial activity against Escherichia coli JM109 after 24 hrs by micro broth dilution assay; format: functional; details: JM109, 24 h
Bacillus subtilis = assay: Antibacterial activity against Bacillus subtilis after 24 hrs by micro broth dilution assay; format: functional
Saccharomyces cerevisiae = assay: Antifungal against Saccharomyces cerevisiae after 24 hrs by two fold serial dilution method; format: functional
Aspergillus flavus = assay: Antifungal against Aspergillus flavus after 24 hrs by two fold serial dilution method; format: functional
Staphylococcus aureus [7] = assay: Antibacterial activity against Staphylococcus aureus ATCC 25923 incubated for 24 hrs followed by plating onto tryptic soy agar medium and measured after 24 hrs; format: functional; details: ATCC 25923, 24 h
Staphylococcus aureus [8] = assay: Ratio of MBC for methicillin-resistant Staphylococcus aureus N315 to MIC for methicillin-resistant Staphylococcus aureus N315; format: functional
Pichia norvegensis = assay: Antifungal against Candida mycoderma after 24 hrs by two fold serial dilution method; format: functional
Pseudomonas aeruginosa [9] = assay: Ratio of MBC for Pseudomonas aeruginosa to MIC for Pseudomonas aeruginosa; format: functional
Candida albicans = assay: Antifungal against Candida albicans ATCC 76615 after 24 hrs by two fold serial dilution method; format: functional; details: ATCC 76615, 24 h
Pseudomonas aeruginosa [10] = assay: Antibacterial activity against Pseudomonas aeruginosa incubated for 24 hrs followed by plating onto tryptic soy agar medium and measured after 24 hrs; format: functional
Cyberlindnera jadinii = assay: Antifungal against Candida utilis after 24 hrs by two fold serial dilution method; format: functional; details: Williopsis jadinii
Staphylococcus aureus [11] = assay: Ratio of MBC for Staphylococcus aureus ATCC 25923 to MIC for Staphylococcus aureus ATCC 25923; format: functional
Staphylococcus aureus [12] = assay: Antibacterial activity against methicillin-resistant Staphylococcus aureus N315 incubated for 24 hrs followed by plating onto tryptic soy agar medium and measured after 24 hrs; format: functional; details: N315, 24 h
HepG2 = assay: Induction of ROS generation in human HepG2 cells at 6.25 to 50 uM by DCFH-DA staining based fluorescence microscopic analysis; format: cell-based; details: hepg2, 50 µM
Albumin [13] = target: T1, Albumin (Homo sapiens, UniProt P02768); assay: Binding affinity to HSA assessed as Stern-Volmer quenching constant at pH 7.4 at 284 K by fluorescence spectroscopic analysis; format: ADME; details: isolated protein
Calf thymus DNA [14] = assay: Competitive binding affinity to calf thymus DNA assessed as reduction in DNA_AO complex fluorescence intensity by acridine orange staining-based assay; format: nucleic-acid assay; details: Bos taurus
Albumin [15] = target: T1, Albumin; assay: Binding affinity to HSA at 0.2 to 1 10'5 mol/L by synchronous fluorescence […]; format: ADME; details: isolated protein
Albumin [16] = target: T1, Albumin; assay: Binding affinity to HSA assessed as Stern-Volmer quenching constant at pH 7.4 at 303 K by fluorescence spectroscopic analysis; format: ADME; details: isolated protein
Calf thymus DNA [17] = assay: Binding affinity to calf thymus DNA by UV-vis absorption spectra analysis; format: nucleic-acid assay; details: Bos taurus
L02 = assay: Cytotoxicity against human LO2 cells at 100 to 500 ug/ml after 48 hrs by MTT assay; format: cell-based; details: l02, 48 h
Calf thymus DNA [18] = assay: Binding affinity to calf thymus DNA assessed as Stern-Volmer quenching constant at 2 x 10^-5 mol/L at pH 7.4 at 298 K in presence of potassium iodide by fluorescence assay (reference value: 46.23 L/mol); format: nucleic-acid assay; details: Bos taurus
Albumin [19] = target: T1, Albumin; assay: Binding affinity to HSA assessed as Stern-Volmer quenching constant at pH 7.4 at 298 K by fluorescence spectroscopic analysis; format: ADME; details: isolated protein
Calf thymus DNA [20] = assay: Binding affinity to calf thymus DNA assessed as hypochromic effect by UV-vis absorption spectra analysis; format: nucleic-acid assay; details: Bos taurus
Albumin [21] = target: T1, Albumin; assay: Binding affinity to HSA assessed as increase in absorption intensity by UV-vis absorption spectra analysis; format: ADME; details: isolated protein

T1 sequence (P02768 whole entry): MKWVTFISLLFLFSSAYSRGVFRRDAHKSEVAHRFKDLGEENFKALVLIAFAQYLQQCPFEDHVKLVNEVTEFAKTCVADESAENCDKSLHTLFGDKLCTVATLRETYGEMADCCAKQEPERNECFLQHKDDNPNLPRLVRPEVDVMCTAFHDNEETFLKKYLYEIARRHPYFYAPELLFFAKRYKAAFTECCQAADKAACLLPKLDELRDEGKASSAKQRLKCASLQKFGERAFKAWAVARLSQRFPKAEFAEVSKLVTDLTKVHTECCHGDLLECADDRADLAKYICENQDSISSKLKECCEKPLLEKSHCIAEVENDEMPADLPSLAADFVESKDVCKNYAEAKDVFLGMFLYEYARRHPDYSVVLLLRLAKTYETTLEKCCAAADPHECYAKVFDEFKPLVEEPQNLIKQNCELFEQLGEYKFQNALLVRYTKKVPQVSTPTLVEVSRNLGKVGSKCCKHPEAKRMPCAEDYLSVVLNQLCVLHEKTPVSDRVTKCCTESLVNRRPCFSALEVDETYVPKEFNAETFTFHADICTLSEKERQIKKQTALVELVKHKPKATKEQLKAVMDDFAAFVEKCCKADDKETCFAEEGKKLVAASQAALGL

SMILES	MIC (Staphylococcus aureus [1]) [µg/mL]	MIC (Shigella dysenteriae) [µg/mL]	Activity (Staphylococcus aureus [2])	MIC (Salmonella typhi) [µg/mL]	MIC (Pseudomonas aeruginosa [3]) [µg/mL]	MIC (Escherichia coli [4]) [µg/mL]	MIC (Bacillus) [µg/mL]	MIC (Micrococcus luteus) [µg/mL]	MIC (Staphylococcus aureus [5]) [µg/mL]	MIC (Escherichia coli [6]) [µg/mL]	MIC (Bacillus subtilis) [µg/mL]	MIC (Saccharomyces cerevisiae) [µg/mL]	MIC (Aspergillus flavus) [µg/mL]	MBC (Staphylococcus aureus [7]) [µg/mL]	MIC (Pichia norvegensis) [µg/mL]	Ratio (Pseudomonas aeruginosa [9])	MIC (Candida albicans) [µg/mL]	MBC (Pseudomonas aeruginosa [10]) [µg/mL]	MIC (Cyberlindnera jadinii) [µg/mL]	Ratio (Staphylococcus aureus [11])	other results
CCn1cc(C(=O)O)c(=O)c2cc(F)c(N3CCNCC3)cc21 [NORFLOXACIN]	8 (≈ 25.1 µM)	16 (≈ 50.1 µM)	inactive	1 (≈ 3.13 µM)	1 (≈ 3.13 µM)	1 (≈ 3.13 µM)	4 (≈ 12.5 µM)	1 (≈ 3.13 µM)	1 (≈ 3.13 µM)	1 (≈ 3.13 µM)	2 (≈ 6.26 µM)										
Nc1nc(-c2ccc(F)cc2)cc(-c2nc3ccccc3[nH]2)n1	2 (≈ 6.55 µM)	16 (≈ 52.4 µM)		8 (≈ 26.2 µM)	16 (≈ 52.4 µM)	128 (≈ 419 µM)	128 (≈ 419 µM)	32 (≈ 105 µM)	128 (≈ 419 µM)	128 (≈ 419 µM)	2 (≈ 6.55 µM)	64 (≈ 210 µM)	256 (≈ 838 µM)	2 (≈ 6.55 µM)	256 (≈ 838 µM)	1	8 (≈ 26.2 µM)	16 (≈ 52.4 µM)	128 (≈ 419 µM)	1	Ratio (Staphylococcus aureus [8]): 4; MBC (Staphylococcus aureus [12]): 512 µg/mL (≈ 1680 µM)
Cc1ccc(-c2cc(-c3nc4ccccc4[nH]3)nc(N)n2)cc1	8 (≈ 26.5 µM)	16 (≈ 53.1 µM)	Active	2 (≈ 6.64 µM)	4 (≈ 13.3 µM)	1 (≈ 3.32 µM)	4 (≈ 13.3 µM)	8 (≈ 26.5 µM)	8 (≈ 26.5 µM)	2 (≈ 6.64 µM)	8 (≈ 26.5 µM)	4 (≈ 13.3 µM)	1 (≈ 3.32 µM)	8 (≈ 26.5 µM)	4 (≈ 13.3 µM)	2	8 (≈ 26.5 µM)	8 (≈ 26.5 µM)	4 (≈ 13.3 µM)	1	Activity (HepG2): Non-Toxic; KSV (Albumin [13]): 1.96 ×10⁵ L/mol; Activity (Calf thymus DNA [14]): Dose-dependent effect; Activity (Albumin [15]): Active; KSV (Albumin [16]): 1.73 ×10⁵ L/mol; K (Calf thymus DNA [17]): 1.54 ×10⁴ L/mol; Activity (L02): Non-Toxic; KSV (Calf thymus DNA [18]): 39.9 L/mol; KSV (Albumin [19]): 1.9 ×10⁵ L/mol; Activity (Calf thymus DNA [20]): Active; Activity (Albumin [21]): Active; MBC (Staphylococcus aureus [12]): 8 µg/mL (≈ 26.5 µM)
